# From patent publication US12398154B2, “Azaquinazoline pan-KRas inhibitors” (Mirati Therapeutics, Inc., priority 2020, dated 2025)
# Tests used:
# [1] = test system: pERK in H460 cells; test: Inhibition of KRas phosphorylation of ERK (Cisbio HTRF pERK assay); settings: Homo sapiens, NCI-H460, read-out: Inhibition (HTRF IC50) of KRas-mediated Phosphorylation of ERK, H460
# [2] = test system: pERK in HCT116 cells; test: as above; settings: Homo sapiens, HCT-116, read-out: Inhibition (HTRF IC50) of KRas-mediated Phosphorylation of ERK, HCT116
# [3] = test system: pERK in H727 cells; test: as above; settings: Homo sapiens, NCI-H727, read-out: Inhibition (HTRF IC50) of KRas-mediated Phosphorylation of ERK, H727
# [4] = test system: pERK in ASPC1 cells; test: as above; settings: Homo sapiens, ASPC1, read-out: Inhibition (HTRF IC50) of KRas-mediated Phosphorylation of ERK, AsPC-1
# [5] = test system: pERK in H358 cells; test: as above; settings: Homo sapiens, NCI-H358, read-out: Inhibition (HTRF IC50) of KRas-mediated Phosphorylation of ERK, H358
# [6] = biological target: KRas G12D (Homo sapiens, UniProt P01116, G12D); test: biochemical;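 note: TR-FRET displacement binding assay on KRas, read after a one-hour incubation at room temperature, IC50 fitted from percent-of-control values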
# KRas G12D, sequence (P01116 1-169 isoform P01116-2 G12D): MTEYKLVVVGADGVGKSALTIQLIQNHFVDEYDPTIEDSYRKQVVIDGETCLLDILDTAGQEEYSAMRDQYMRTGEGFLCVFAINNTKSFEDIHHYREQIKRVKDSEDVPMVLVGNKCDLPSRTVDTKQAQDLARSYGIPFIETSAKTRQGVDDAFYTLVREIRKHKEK
# [7] = test system: pERK in PSN1 cells; test: Inhibition of KRas phosphorylation of ERK (Cisbio HTRF pERK assay); settings: Homo sapiens, PSN1, 3 h, read-out: Inhibition (HTRF IC50) of KRas-mediated Phosphorylation of ERK, PSN1
# [8] = biological target: KRas G12R (Homo sapiens, UniProt P01116, G12R); test: biochemical;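 note: TR-FRET displacement assay of compound binding to KRas, read after one hour at room temperature, potency from a four-parameter fit of percent-of-control values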
# KRas G12R, sequence (P01116 1-169 isoform P01116-2 G12R): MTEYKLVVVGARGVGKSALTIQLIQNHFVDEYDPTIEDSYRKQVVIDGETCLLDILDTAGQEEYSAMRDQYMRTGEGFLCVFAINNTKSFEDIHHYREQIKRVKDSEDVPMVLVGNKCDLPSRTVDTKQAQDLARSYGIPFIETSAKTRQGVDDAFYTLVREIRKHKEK
# [9] = test system: pERK in A549 cells; test: Inhibition of KRas phosphorylation of ERK (Cisbio HTRF pERK assay); settings: Homo sapiens, A549, read-out: Inhibition (HTRF IC50) of KRas-mediated Phosphorylation of ERK, A549
# [10] = test system: pERK in MKN1 cells; test: as above; settings: Homo sapiens, MKN-1, 3 h, read-out: Inhibition (HTRF IC50) of KRas-mediated Phosphorylation of ERK, MKN1
# [11] = biological target: KRas G12V (Homo sapiens, UniProt P01116, G12V); test: biochemical;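 note: KRas binding measured by TR-FRET displacement at room temperature, IC50 fitted from percent of control values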
# KRas G12V, sequence (P01116 1-169 isoform P01116-2 G12V): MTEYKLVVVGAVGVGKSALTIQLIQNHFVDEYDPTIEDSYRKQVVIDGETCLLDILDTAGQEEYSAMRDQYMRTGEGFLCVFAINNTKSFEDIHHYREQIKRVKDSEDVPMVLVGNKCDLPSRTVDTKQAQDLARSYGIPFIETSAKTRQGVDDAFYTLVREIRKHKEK
SMILES,IC50 [1],IC50 [2],IC50 [3],IC50 [4],IC50 [5],IC50 [6],IC50 [7],IC50 [8],IC50 [9],IC50 [10],IC50 [11]
"CCc1c(F)ccc2cc(O)cc(-c3ncc4c(N5CCC[C@@](C)(O)C5)nc(OC[C@]56CCCN5[C@@H](COC(=O)N(C)C)CC6)nc4c3F)c12 [Example 362, ((3R,7aR)-7a-(((7-(8-ethyl-7-fluoro-3-hydroxynaphthalen-1-yl)-8-fluoro-4-((R)-3-hydroxy-3-methylpiperidin-1-yl)pyrido[4,3-d]pyrimidin-2-yl)oxy)methyl)hexahydro-1H-pyrrolizin-3-yl)methyl dimethylcarbamate]",404 nM,763 nM,313 nM,73 nM,113 nM,3 nM,5130 nM,4 nM,629 nM,37 nM,3 nM
"CCc1c(F)ccc2cc(O)cc(-c3ncc4c(N5CCCC6(CSC6)C5)nc(OC[C@@]56CCCN5C[C@H](F)C6)nc4c3F)c12 [Example 365, 5-ethyl-6-fluoro-4-(8-fluoro-2-(((2R,7aS)-2-fluorohexahydro-1H-pyrrolizin-7a-yl)methoxy)-4-(2-thia-6-azaspiro[3.5]nonan-6-yl)pyrido[4,3-d]pyrimidin-7-yl)naphthalen-2-ol]",17 nM,77 nM,24 nM,17 nM,6 nM,≤ 2 nM,2860 nM,≤ 2 nM,11 nM,10 nM,≤ 2 nM
"C#Cc1c(F)ccc2cc(O)cc(-c3ncc4c(N5CCCC6(CC(O)C6)C5)nc(OC[C@@]56CCCN5C[C@H](F)C6)nc4c3F)c12 (stereo partly drawn) [Example 393, 6-(7-(8-ethynyl-7-fluoro-3-hydroxynaphthalen-1-yl)-8-fluoro-2-(((2R,7aS)-2-fluorohexahydro-1H-pyrrolizin-7a-yl)methoxy)pyrido[4,3-d]pyrimidin-4-yl)-6-azaspiro[3.5]nonan-2-ol]",110 nM,68 nM,24 nM,68 nM,20 nM,≤ 2 nM,449 nM,≤ 2 nM,133 nM,8 nM,≤ 2 nM
"C#Cc1c(F)ccc2cc(O)cc(-c3ncc4c(N5CCCn6nc(C(=O)N(C)C)cc6C5)nc(OC[C@@]56CCCN5C[C@H](F)C6)nc4c3F)c12 [Example 398, 5-(7-(8-ethynyl-7-fluoro-3-hydroxynaphthalen-1-yl)-8-fluoro-2-(((2R,7aS)-2-fluorohexahydro-1H-pyrrolizin-7a-yl)methoxy)pyrido[4,3-d]pyrimidin-4-yl)-N,N-dimethyl-5,6,7,8-tetrahydro-4H-pyrazolo[1,5-a][1,4]diazepine-2-carboxamide]",387 nM,348 nM,26 nM,25 nM,10 nM,≤ 2 nM,6690 nM,≤ 2 nM,102 nM,7 nM,≤ 2 nM
"C[C@@]1(O)CCCN(c2nc(OC[C@@]34CCCN3C[C@H](F)C4)nc3c(F)c(-c4cc(O)cc5ccc(F)c(Br)c45)ncc23)C1 [Example 399, (R)-1-(7-(8-bromo-7-fluoro-3-hydroxynaphthalen-1-yl)-8-fluoro-2-(((2R,7aS)-2-fluorohexahydro-1H-pyrrolizin-7a-yl)methoxy)pyrido[4,3-d]pyrimidin-4-yl)-3-methylpiperidin-3-ol]",18 nM,23 nM,16 nM,3 nM,4 nM,≤ 2 nM,357 nM,≤ 2 nM,14 nM,1 nM,≤ 2 nM
"CC1(O)COCCN(c2nc(OC[C@@]34CCCN3C[C@H](F)C4)nc3c(F)c(-c4cc(O)cc5ccc(F)c(Br)c45)ncc23)C1 (stereo partly drawn) [Example 400, 4-(7-(8-bromo-7-fluoro-3-hydroxynaphthalen-1-yl)-8-fluoro-2-(((2R,7aS)-2-fluorohexahydro-1H-pyrrolizin-7a-yl)methoxy)pyrido[4,3-d]pyrimidin-4-yl)-6-methyl-1,4-oxazepan-6-ol]",41 nM,113 nM,87 nM,27 nM,9 nM,≤ 2 nM,3540 nM,≤ 2 nM,62 nM,7 nM,≤ 2 nM

# Second part, the compound after the results:
IC50 [1],IC50 [2],IC50 [3],IC50 [4],IC50 [5],IC50 [6],IC50 [7],IC50 [8],IC50 [9],IC50 [10],IC50 [11],SMILES
51 nM,46 nM,14 nM,12 nM,4 nM,≤ 2 nM,514 nM,≤ 2 nM,34 nM,3 nM,≤ 2 nM,"Oc1cc(-c2ncc3c(N4CC5CC(O)C(C5)C4)nc(OC[C@@]45CCCN4C[C@H](F)C5)nc3c2F)c2c(Br)c(F)ccc2c1 (stereo partly drawn) [Example 402, 3-(7-(8-bromo-7-fluoro-3-hydroxynaphthalen-1-yl)-8-fluoro-2-(((2R,7aS)-2-fluorohexahydro-1H-pyrrolizin-7a-yl)methoxy)pyrido[4,3-d]pyrimidin-4-yl)-3-azabicyclo[3.2.1]octan-6-ol]"
26 nM,41 nM,15 nM,27 nM,3 nM,≤ 2 nM,1330 nM,≤ 2 nM,27 nM,15 nM,≤ 2 nM,"Oc1cc(-c2ncc3c(N4CCCC5(CC(O)C5)C4)nc(OC[C@@]45CCCN4C[C@H](F)C5)nc3c2F)c2c(Br)c(F)ccc2c1 (stereo partly drawn) [Example 407, 6-(7-(8-bromo-7-fluoro-3-hydroxynaphthalen-1-yl)-8-fluoro-2-(((2R,7aS)-2-fluorohexahydro-1H-pyrrolizin-7a-yl)methoxy)pyrido[4,3-d]pyrimidin-4-yl)-6-azaspiro[3.5]nonan-2-ol]"
413 nM,586 nM,51 nM,19 nM,11 nM,≤ 2 nM,5980 nM,≤ 2 nM,242 nM,34 nM,≤ 2 nM,"CN(C)C(=O)c1cc2n(n1)CCCN(c1nc(OC[C@@]34CCCN3C[C@H](F)C4)nc3c(F)c(-c4cc(O)cc5ccc(F)c(Br)c45)ncc13)C2 [Example 412, 5-(7-(8-bromo-7-fluoro-3-hydroxynaphthalen-1-yl)-8-fluoro-2-(((2R,7aS)-2-fluorohexahydro-1H-pyrrolizin-7a-yl)methoxy)pyrido[4,3-d]pyrimidin-4-yl)-N,N-dimethyl-5,6,7,8-tetrahydro-4H-pyrazolo[1,5-a][1,4]diazepine-2-carboxamide]"
52 nM,60 nM,32 nM,25 nM,11 nM,≤ 2 nM,596 nM,3 nM,74 nM,3 nM,≤ 2 nM,"C[C@@]1(O)CCCN(c2nc(OC[C@@]34CCCN3C[C@H](F)C4)nc3c(F)c(-c4cc(O)cc5ccc(F)c(Cl)c45)ncc23)C1 [Example 418, (R)-1-(7-(8-chloro-7-fluoro-3-hydroxynaphthalen-1-yl)-8-fluoro-2-(((2R,7aS)-2-fluorohexahydro-1H-pyrrolizin-7a-yl)methoxy)pyrido[4,3-d]pyrimidin-4-yl)-3-methylpiperidin-3-ol]"
73 nM,70 nM,26 nM,61 nM,16 nM,3 nM,1500 nM,≤ 2 nM,39 nM,4 nM,≤ 2 nM,"Oc1cc(-c2ncc3c(N4CC5CC(O)C(C5)C4)nc(OC[C@@]45CCCN4C[C@H](F)C5)nc3c2F)c2c(Cl)c(F)ccc2c1 (stereo partly drawn) [Example 421, 3-(7-(8-chloro-7-fluoro-3-hydroxynaphthalen-1-yl)-8-fluoro-2-(((2R,7aS)-2-fluorotetrahydro-1H-pyrrolizin-7a(5H)-yl)methoxy)pyrido[4,3-d]pyrimidin-4-yl)-3-azabicyclo[3,2,1]octan-6-ol]"
